Results reported in PubChem BioAssay (NCI).
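Five compound concentrations were applied to cells in 96-well plates for 48 hours; endpoints were derived by simple linear interpolation of the resulting dose-response curve. TGI marks complete inhibition of growth.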

Key:
Assay in all cases: inhibition of tumour cell growth, NCI panel, 48 h
SW-620 colon = tested on: SW-620 colon
OVCAR-5 ovarian = tested on: OVCAR-5 ovarian
PC-3 prostate = tested on: PC-3 prostate
HOP-92 NSCLC = tested on: HOP-92 NSCLC
UO-31 renal = tested on: UO-31 renal
SR leukemia = tested on: SR leukemia
UACC-62 melanoma = tested on: UACC-62 melanoma
OVCAR-4 ovarian = tested on: OVCAR-4 ovarian
HCC-2998 colon = tested on: HCC-2998 colon
HOP-62 NSCLC = tested on: HOP-62 NSCLC
SF-295 CNS = tested on: SF-295 CNS
HCT-116 colon = tested on: HCT-116 colon
SK-MEL-28 melanoma = tested on: SK-MEL-28 melanoma
M14 melanoma = tested on: M14 melanoma
HCT-15 colon = tested on: HCT-15 colon
NCI-H522 lung = tested on: NCI-H522 lung
BT-549 breast = tested on: BT-549 breast
TK-10 renal = tested on: TK-10 renal
DU-145 prostate = tested on: DU-145 prostate
MCF7 breast = tested on: MCF7 breast
RXF 393 renal = tested on: RXF 393 renal
MDA-MB-231 breast = tested on: MDA-MB-231 breast
MOLT-4 leukemia = tested on: MOLT-4 leukemia
SK-OV-3 ovarian = tested on: SK-OV-3 ovarian
SN12C renal = tested on: SN12C renal
SF-539 CNS = tested on: SF-539 CNS
K-562 leukemia = tested on: K-562 leukemia
SK-MEL-5 melanoma = tested on: SK-MEL-5 melanoma
IGROV1 ovarian = tested on: IGROV1 ovarian
786-0 renal = tested on: 786-0 renal
A549 NSCLC = tested on: A549 NSCLC
EKVX NSCLC = tested on: EKVX NSCLC
HS 578T breast = tested on: HS 578T breast
MALME-3M melanoma = tested on: MALME-3M melanoma
NCI/ADR-RES ovarian = tested on: NCI/ADR-RES ovarian
MDA-N = tested on: MDA-N
HT29 colon = tested on: HT29 colon
T-47D breast = tested on: T-47D breast
CAKI-1 renal = tested on: CAKI-1 renal
OVCAR-3 ovarian = tested on: OVCAR-3 ovarian
CCRF-CEM leukemia = tested on: CCRF-CEM leukemia
NCI-H23 lung = tested on: NCI-H23 lung
A498 renal = tested on: A498 renal
UACC-257 melanoma = tested on: UACC-257 melanoma
LOX IMVI melanoma = tested on: LOX IMVI melanoma
NCI-H460 lung = tested on: NCI-H460 lung
HL-60(TB) leukemia = tested on: HL-60(TB) leukemia
ACHN renal = tested on: ACHN renal
KM12 colon = tested on: KM12 colon
NCI-H226 lung = tested on: NCI-H226 lung
MDA-MB-435 = tested on: MDA-MB-435
SNB-75 CNS = tested on: SNB-75 CNS
COLO 205 colon = tested on: COLO 205 colon
SK-MEL-2 melanoma = tested on: SK-MEL-2 melanoma
SNB-19 CNS = tested on: SNB-19 CNS
U251 CNS = tested on: U251 CNS
OVCAR-8 ovarian = tested on: OVCAR-8 ovarian
SF-268 CNS = tested on: SF-268 CNS

For `O=C(NCCCNCCCCNCCCNC(=O)c1cc(-c2ccccc2)nc2ccccc12)c1cc(-c2ccccc2)nc2ccccc12`, the TGI (SW-620 colon) was 13.1 µM, the TGI (OVCAR-5 ovarian) was 5.26 µM and the TGI (PC-3 prostate) was 4.33 µM. It also gave a TGI (HOP-92 NSCLC) of 4.36 µM, a TGI (UO-31 renal) of 40 µM and a TGI (SR leukemia) of 4.95 µM. For the same compound, the TGI (UACC-62 melanoma) was 6.77 µM, the TGI (OVCAR-4 ovarian) was > 24.8 µM and the TGI (HCC-2998 colon) was 4.61 µM. For the same compound, the TGI (HOP-62 NSCLC) was 11.2 µM, the TGI (SF-295 CNS) was 14.4 µM and the TGI (HCT-116 colon) was > 100 µM. It also gave a TGI (SK-MEL-28 melanoma) of 3.3 µM, a TGI (M14 melanoma) of 5.23 µM and a TGI (HCT-15 colon) of 44.1 µM. For the same compound, the TGI (NCI-H522 lung) was 5.64 µM, the TGI (BT-549 breast) was 15.5 µM and the TGI (TK-10 renal) was 23.8 µM. The TGI (DU-145 prostate) was > 59.1 µM, the TGI (MCF7 breast) was 3.78 µM and the TGI (RXF 393 renal) was 74.2 µM. The TGI (MDA-MB-231 breast) was > 100 µM, the TGI (MOLT-4 leukemia) was 3.73 µM and the TGI (SK-OV-3 ovarian) was 4.85 µM. It also gave a TGI (SN12C renal) of 7.88 µM, a TGI (SF-539 CNS) of 3.62 µM and a TGI (K-562 leukemia) of 3.83 µM. The TGI (SK-MEL-5 melanoma) was 26.3 µM, the TGI (IGROV1 ovarian) was 5.35 µM and the TGI (786-0 renal) was 3 µM. The TGI (A549 NSCLC) was 4.88 µM, the TGI (EKVX NSCLC) was 18 µM and the TGI (HS 578T breast) was 4.32 µM. For the same compound, the TGI (MALME-3M melanoma) was 4.01 µM, the TGI (NCI/ADR-RES ovarian) was 74.2 µM and the TGI (MDA-N) was 3.17 µM. For the same compound, the TGI (HT29 colon) was 3.57 µM, the TGI (T-47D breast) was 12.1 µM and the TGI (CAKI-1 renal) was 36.3 µM. For the same compound, the TGI (OVCAR-3 ovarian) was 15.9 µM, the TGI (CCRF-CEM leukemia) was 3.63 µM and the TGI (NCI-H23 lung) was > 24.1 µM. It also gave a TGI (A498 renal) of 47.5 µM, a TGI (UACC-257 melanoma) of 13.3 µM and a TGI (LOX IMVI melanoma) of 3.12 µM. The TGI (NCI-H460 lung) was 19.7 µM, the TGI (HL-60(TB) leukemia) was 3.8 µM and the TGI (ACHN renal) was 42.3 µM.

With `COC(=O)[C@@H]1COC(C(C)(C)C)N1C(=O)C(c1ccccc1)c1ccccc1` (stereo partly specified) the TGI (KM12 colon) was > 100 µM, the TGI (SW-620 colon) was > 100 µM and the TGI (NCI-H226 lung) was > 100 µM. The TGI (OVCAR-5 ovarian) was > 100 µM, the TGI (PC-3 prostate) was > 100 µM and the TGI (HOP-92 NSCLC) was > 100 µM. The TGI (MDA-MB-435) was > 100 µM, the TGI (UO-31 renal) was > 100 µM and the TGI (SR leukemia) was 33.9 µM. For the same compound, the TGI (UACC-62 melanoma) was > 100 µM, the TGI (OVCAR-4 ovarian) was > 100 µM and the TGI (SNB-75 CNS) was > 100 µM. For the same compound, the TGI (HCC-2998 colon) was > 100 µM, the TGI (HOP-62 NSCLC) was > 100 µM and the TGI (SF-295 CNS) was > 100 µM. The TGI (HCT-116 colon) was > 100 µM, the TGI (SK-MEL-28 melanoma) was > 100 µM and the TGI (COLO 205 colon) was > 100 µM. The TGI (M14 melanoma) was > 100 µM, the TGI (HCT-15 colon) was > 100 µM and the TGI (NCI-H522 lung) was > 100 µM. The TGI (BT-549 breast) was > 100 µM, the TGI (TK-10 renal) was > 100 µM and the TGI (DU-145 prostate) was > 100 µM. For the same compound, the TGI (MCF7 breast) was > 100 µM, the TGI (RXF 393 renal) was 38.1 µM and the TGI (SK-MEL-2 melanoma) was > 100 µM. The TGI (MDA-MB-231 breast) was 81.8 µM, the TGI (MOLT-4 leukemia) was > 100 µM and the TGI (SK-OV-3 ovarian) was 88.4 µM. For the same compound, the TGI (SNB-19 CNS) was > 100 µM, the TGI (SN12C renal) was > 100 µM and the TGI (SF-539 CNS) was > 100 µM. The TGI (K-562 leukemia) was 70.4 µM, the TGI (SK-MEL-5 melanoma) was > 100 µM and the TGI (IGROV1 ovarian) was > 100 µM. The TGI (786-0 renal) was > 100 µM, the TGI (A549 NSCLC) was > 100 µM and the TGI (EKVX NSCLC) was > 100 µM. For the same compound, the TGI (U251 CNS) was > 100 µM, the TGI (HS 578T breast) was > 100 µM and the TGI (MALME-3M melanoma) was > 100 µM. The TGI (OVCAR-8 ovarian) was > 100 µM, the TGI (NCI/ADR-RES ovarian) was > 100 µM and the TGI (MDA-N) was 69.2 µM. The TGI (HT29 colon) was > 100 µM, the TGI (T-47D breast) was > 100 µM and the TGI (CAKI-1 renal) was > 100 µM. For the same compound, the TGI (OVCAR-3 ovarian) was > 100 µM, the TGI (CCRF-CEM leukemia) was 84.7 µM and the TGI (NCI-H23 lung) was > 100 µM. For the same compound, the TGI (A498 renal) was > 100 µM, the TGI (UACC-257 melanoma) was > 100 µM and the TGI (LOX IMVI melanoma) was 52.1 µM. For the same compound, the TGI (SF-268 CNS) was > 100 µM, the TGI (NCI-H460 lung) was > 100 µM and the TGI (HL-60(TB) leukemia) was 83.4 µM. For the same compound, the TGI (ACHN renal) was > 100 µM.
